Results from patent US20090018134A1, “Compounds - 945” (AstraZeneca AB, priority 2007, published 2009).
Read-outs that look alike come from different tables or passages of the source.

Molecular target: T1, mTOR (Homo sapiens, UniProt P42345)
T1 construct: FLAG; made in house
Experiment: In Vitro mTOR Kinase Assay (Echo), Test (a)(ii)
Assay type: biochemical
How it was run: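 AlphaScreen read-out: biotinylated substrate phosphorylation was detected with anti-p70 S6K (T389) 1A5 antibody, Protein A acceptor and streptavidin donor beads after overnight dark incubation at room temperature. Enzyme was FLAG-mTOR 1362-2549 from stable HEK293 cells.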

[1] = table of enzyme assay Test (a)(ii), read-out: Test (a)(ii) IC50
[2] = read-out: mTOR Kinase Assay (Echo)

T1 sequence (P42345 1362-2549): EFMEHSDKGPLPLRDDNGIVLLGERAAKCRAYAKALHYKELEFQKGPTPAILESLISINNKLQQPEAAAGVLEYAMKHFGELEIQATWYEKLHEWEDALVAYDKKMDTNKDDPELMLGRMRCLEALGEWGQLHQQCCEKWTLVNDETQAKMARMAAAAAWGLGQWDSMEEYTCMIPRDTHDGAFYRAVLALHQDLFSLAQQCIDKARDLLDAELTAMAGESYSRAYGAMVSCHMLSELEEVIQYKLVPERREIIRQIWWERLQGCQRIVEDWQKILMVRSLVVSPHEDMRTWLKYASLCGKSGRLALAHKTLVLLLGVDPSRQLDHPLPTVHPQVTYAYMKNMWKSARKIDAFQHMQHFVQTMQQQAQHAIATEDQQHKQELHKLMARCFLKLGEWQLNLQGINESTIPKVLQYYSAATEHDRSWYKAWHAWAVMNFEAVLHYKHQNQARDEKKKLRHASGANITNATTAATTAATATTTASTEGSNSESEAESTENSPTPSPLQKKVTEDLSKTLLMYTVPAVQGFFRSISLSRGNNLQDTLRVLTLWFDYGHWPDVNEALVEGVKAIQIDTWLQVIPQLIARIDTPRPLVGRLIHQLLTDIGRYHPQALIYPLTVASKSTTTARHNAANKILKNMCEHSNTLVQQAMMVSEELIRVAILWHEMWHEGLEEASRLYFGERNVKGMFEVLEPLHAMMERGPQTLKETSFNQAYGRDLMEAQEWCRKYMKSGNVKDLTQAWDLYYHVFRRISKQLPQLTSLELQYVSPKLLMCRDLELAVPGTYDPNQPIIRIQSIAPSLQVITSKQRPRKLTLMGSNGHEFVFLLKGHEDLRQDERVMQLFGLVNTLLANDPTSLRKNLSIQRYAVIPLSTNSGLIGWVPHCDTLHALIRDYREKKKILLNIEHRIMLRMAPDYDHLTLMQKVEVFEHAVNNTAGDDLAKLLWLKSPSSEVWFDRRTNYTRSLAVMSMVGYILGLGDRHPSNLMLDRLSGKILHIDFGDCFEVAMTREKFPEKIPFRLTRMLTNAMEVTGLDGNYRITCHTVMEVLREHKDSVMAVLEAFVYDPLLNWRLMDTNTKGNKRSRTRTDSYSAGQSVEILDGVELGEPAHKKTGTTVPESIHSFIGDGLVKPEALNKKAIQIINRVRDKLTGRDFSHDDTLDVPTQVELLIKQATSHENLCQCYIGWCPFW

| SMILES | IC50 [1] | IC50 [2] |
| --- | --- | --- |
| C[C@H]1COCCN1c1cc(C2(S(=O)(=O)c3ccncc3)CC2)nc(-c2ccc(NC(=O)NC3(CO)CC3)cc2)n1 [Example 36cx, 3-[1-(hydroxymethyl)cyclopropyl]-1-[4-[4-[(3S)-3-methylmorpholin-4-yl]-6-(1-pyridin-4-ylsulfonylcyclopropyl)pyrimidin-2-yl]phenyl]urea] | 284 nM | – |
| CC[C@H]1COCCN1c1cc(C2(S(=O)(=O)c3ccccc3)CC2)nc(-c2ccc(NC(=O)NCCCO)cc2)n1 [Example 74h, 1-[4-[4-[1-(benzenesulfonyl)cyclopropyl]-6-[(3S)-3-ethylmorpholin-4-yl]pyrimidin-2-yl]phenyl]-3-(3-hydroxypropyl)urea] | 3.21 nM | – |
| C[C@H]1COCCN1c1cc(C2(S(C)(=O)=O)CC2)nc(-c2ccc(NC(=O)NCc3ncc[nH]3)cc2)n1 [Example 2d, 3-(1H-imidazol-2-ylmethyl)-1-[4-[4-[(3S)-3-methylmorpholin-4-yl]-6-(1-methylsulfonylcyclopropyl)pyrimidin-2-yl]phenyl]urea] | – | 23.9 nM |
| C[C@H]1COCCN1c1cc(C2(S(=O)(=O)CCCO)CC2)nc(-c2ccc(NC(=O)Nc3cnn(C)c3)cc2)n1 [Example 31j, 1-[4-[4-[1-(3-hydroxypropylsulfonyl)cyclopropyl]-6-[(3S)-3-methylmorpholin-4-yl]pyrimidin-2-yl]phenyl]-3-(1-methylpyrazol-4-yl)urea] | 1.03 nM | – |
| C[C@H]1COCCN1c1cc(C2(S(=O)(=O)c3ccncc3)CCC2)nc(-c2ccc(NC(=O)NC(C)(C)CO)cc2)n1 [Example 83c, 3-(1-hydroxy-2-methylpropan-2-yl)-1-[4-[4-[(3S)-3-methylmorpholin-4-yl]-6-(1-pyridin-4-ylsulfonylcyclobutyl)pyrimidin-2-yl]phenyl]urea] | 12.4 nM | – |
| CNC(=O)Nc1ccc(-c2nc(N3CCOC[C@@H]3C)cc(C3(S(=O)(=O)c4c(C)nn(C(F)F)c4C)CC3)n2)cc1 [Example 75a, 1-[4-[4-[1-[1-(difluoromethyl)-3,5-dimethylpyrazol-4-yl]sulfonylcyclopropyl]-6-[(3S)-3-methylmorpholin-4-yl]pyrimidin-2-yl]phenyl]-3-methylurea] | 43.5 nM | – |
| CC(C)CNC(=O)Nc1ccc(-c2nc(N3CCOC[C@@H]3C)cc(C3(S(=O)(=O)C(C)C)CC3)n2)cc1 [Example 7i, 1-[4-[4-[(3S)-3-methylmorpholin-4-yl]-6-(1-propan-2-ylsulfonylcyclopropyl)pyrimidin-2-yl]phenyl]-3-(2-methylpropyl)urea] | – | 18.2 nM |
| C[C@@H](CO)NC(=O)Nc1ccc(-c2nc(N3CCOC[C@@H]3C)cc(C3(S(=O)(=O)c4ccc(F)cc4)CCC3)n2)cc1 [Example 65d, 1-[4-[4-[1-(4-fluorophenyl)sulfonylcyclobutyl]-6-[(3S)-3-methylmorpholin-4-yl]pyrimidin-2-yl]phenyl]-3-[(2S)-1-hydroxypropan-2-yl]urea] | 4.48 nM | – |
| C[C@H]1COCCN1c1cc(C2(S(=O)(=O)c3ccccn3)CCCC2)nc(-c2ccc(NC(=O)NCCO)cc2)n1 [Example 36ac, 3-(2-hydroxyethyl)-1-[4-[4-[(3S)-3-methylmorpholin-4-yl]-6-(1-pyridin-2-ylsulfonylcyclopentyl)pyrimidin-2-yl]phenyl]urea] | 4.41 nM | – |
| Cc1cc(F)ccc1S(=O)(=O)C1(c2cc(N3CCOC[C@@H]3C)nc(-c3ccc(NC(=O)NCCF)cc3)n2)CC1 [Example 82c, 3-(2-fluoroethyl)-1-[4-[4-[1-(4-fluoro-2-methylphenyl)sulfonylcyclopropyl]-6-[(3S)-3-methylmorpholin-4-yl]pyrimidin-2-yl]phenyl]urea] | 18.5 nM | – |
| CCCNC(=O)Nc1ccc(-c2nc(N3CCOC[C@@H]3C)cc(C3(S(=O)(=O)CC)CC3)n2)cc1 [Example 11h, 3-[4-[4-(1-ethylsulfonylcyclopropyl)-6-[(3S)-3-methylmorpholin-4-yl]pyrimidin-2-yl]phenyl]-1-propyl-urea] | – | 9.13 nM |
| CCCNC(=S)Nc1ccc(-c2nc(N3CCOC[C@@H]3C)cc(C3(S(=O)(=O)CCCO)CC3)n2)cc1 [Example 37l, 3-[4-[4-[1-(3-hydroxypropylsulfonyl)cyclopro-pyl]-6-[(3S)-3-methylmorpholin-4-yl]pyrimidin-2-yl]phenyl]-1-propylthiourea] | 32 nM | – |
| CC(C)CNC(=O)Nc1ccc(-c2nc(N3CCOC[C@@H]3C)cc(C3(S(=O)(=O)c4ccccc4C(F)(F)F)CC3)n2)cc1 [Example 10c, 1-[4-[4-[(3S)-3-methylmorpholin-4-yl]-6-[1-[2-(trifluoromethyl)phenyl]sulfonylcyclopropyl]pyrimidin-2-yl]phenyl]-3-(2-methylpropyl)urea] | – | 147 nM |
| C[C@H]1COCCN1c1cc(C2(S(=O)(=O)c3ccc(C#N)cc3)CC2)nc(-c2ccc(NC(=O)Nc3cnn(C)c3)cc2)n1 [Example 77f, 1-[4-[4-[1-(4-cyanophenyl)sulfonylcyclopropyl]-6-[(3S)-3-methylmorpholin-4-yl]pyrimidin-2-yl]phenyl]-3-(1-methylpyrazol-4-yl)urea] | 9.19 nM | – |
| C[C@H]1COCCN1c1cc(C2(S(=O)(=O)c3ccccn3)CC2)nc(-c2ccc(NC(=O)NCCN(C)C)cc2)n1 [Example 28f, 3-(2-dimethylaminoethyl)-1-[4-[4-[(3S)-3-methylmorpholin-4-yl]-6-(1-pyridin-2-ylsulfonylcyclopropyl)pyrimidin-2-yl]phenyl]urea] | 67.4 nM | – |
| C[C@H]1COCCN1c1cc(C2(S(=O)(=O)c3ccccc3)CC2)nc(-c2ccc(NC(=O)Nc3cn(C)cn3)cc2)n1 [Example 36eb, 1-[4-[4-[1-(benzenesulfonyl)cyclopropyl]-6-[(3S)-3-methylmorpholin-4-yl]pyrimidin-2-yl]phenyl]-3-(1-methylimidazol-4-yl)urea] | 3.11 nM | – |
| CNC(=O)Nc1ccc(-c2nc(N3CCOC[C@@H]3C)cc(C3(S(=O)(=O)c4ccccc4)CCOCC3)n2)cc1 [Example 36cy, 1-[4-[4-[4-(benzenesulfonyl)oxan-4-yl]-6-[(3S)-3-methylmorpholin-4-yl]pyrimidin-2-yl]phenyl]-3-methylurea] | 47.8 nM | – |
| C[C@H]1COCCN1c1cc(C2(S(C)(=O)=O)CC2)nc(-c2ccc(NC(=O)NCC#N)cc2)n1 [Example 2af, 3-(cyanomethyl)-1-[4-[4-[(3S)-3-methylmorpholin-4-yl]-6-(1-methylsulfonylcyclopropyl)pyrimidin-2-yl]phenyl]urea] | – | 46.2 nM |
| C[C@H]1COCCN1c1cc(C2(S(=O)(=O)c3c(F)cccc3F)CC2)nc(-c2ccc(NC(=O)NCCF)cc2)n1 [Example 86d, 1-[4-[4-[1-(2,6-difluorophenyl)sulfonylcyclopropyl]-6-[(3S)-3-methylmorpholin-4-yl]pyrimidin-2-yl]phenyl]-3-(2-fluoroethyl)urea] | 3.82 nM | – |

Continued, values first:

| IC50 [1] | IC50 [2] | SMILES |
| --- | --- | --- |
| 2.64 nM | – | Cc1csc(S(=O)(=O)C2(c3cc(N4CCOCC4)nc(-c4ccc(NC(=O)NCCC#N)cc4)n3)CC2)n1 [Example 42f, 3-(2-cyanoethyl)-1-[4-[4-[1-[(4-methyl-1,3-thiazol-2-yl)sulfonyl]cyclopropyl]-6-morpholin-4-ylpyrimidin-2-yl]phenyl]urea] |
| 2.02 nM | – | O=C(Nc1ccc(-c2nc(N3CCOCC3)cc(C3(S(=O)(=O)C4CC4)CCC3)n2)cc1)NC1CC1 [Example 13p, 3-cyclopropyl-1-[4-[4-(1-cyclopropylsulfonylcyclobutyl)-6-morpholin-4-ylpyrimidin-2-yl]phenyl]urea] |
| 7.75 nM | – | CCS(=O)(=O)C1(c2cc(N3CCOC[C@@H]3C)nc(-c3ccc(NC(=O)NC)cc3)n2)CCC1 [Example 87c, 1-[4-[4-(1-ethylsulfonylcyclobutyl)-6-[(3S)-3-methylmorpholin-4-yl]pyrimidin-2-yl]phenyl]-3-methylurea] |
| 9.29 nM | – | CN(C)C(=O)C1(c2cc(N3CCOCC3)nc(-c3ccc(NC(=O)NC4CC4)cc3)n2)CC1 [Example 33, 1-[2-[4-(Cyclopropylcarbamoylamino)phenyl]-6-morpholin-4-ylpyrimidin-4-yl]-N,N-dimethylcyclopropane-1-carboxamide] |
| – | 2.79 nM | CNC(=O)Nc1ccc(-c2nc(N3CCOC[C@@H]3C)cc(C3(S(C)(=O)=O)CC3)n2)cc1 [Example 1a] |
| 5.17 nM | – | C[C@H]1COCCN1c1cc(C2(S(=O)(=O)c3ccc(Cl)cc3)CCOCC2)nc(-c2ccc(NC(=O)NC3CC3)cc2)n1 [Example 24, 1-[4-[4-[4-(4-Chlorophenyl)sulfonyloxan-4-yl]-6-[(3S)-3-methylmorpholin-4-yl]pyrimidin-2-yl]phenyl]-3-cyclopropylurea] |
| – | 8.39 nM | C[C@H]1COCCN1c1cc(C2(S(=O)(=O)C3CC3)CC2)nc(-c2ccc(NC(=O)NCC(O)C(F)(F)F)cc2)n1 (stereo partly drawn) [Example 3q, 1-[4-[4-(1-cyclopropylsulfonylcyclopropyl)-6-[(3S)-3-methylmorpholin-4-yl]pyrimidin-2-yl]phenyl]-3-(3,3,3-trifluoro-2-hydroxypropyl)urea] |
| 3.6 nM | – | CNC(=O)Nc1ccc(-c2nc(N3CCOCC3)cc(C3(S(=O)(=O)c4nc(C)cs4)CC3)n2)cc1 [Example 42c, 3-methyl-1-[4-[4-[1-[(4-methyl-1,3-thiazol-2-yl)sulfonyl]cyclopropyl]-6-morpholin-4-ylpyrimidin-2-yl]phenyl]urea] |
| – | 230 nM | C[C@H]1COCCN1c1cc(C2(S(C)(=O)=O)CC2)nc(-c2ccc(NC(=O)NCCN3CCCC3)cc2)n1 [Example 2y, 1-[4-[4-[(3S)-3-methylmorpholin-4-yl]-6-(1-methylsulfonylcyclopropyl)pyrimidin-2-yl]phenyl]-3-(2-pyrrolidin-1-ylethyl)urea] |
| 32.6 nM | – | Cc1ccc(F)cc1S(=O)(=O)C1(c2cc(N3CCOC[C@@H]3C)nc(-c3ccc(NC(=O)NC4CC4)cc3)n2)CC1 [Example 61a, 3-cyclopropyl-1-[4-[4-[1-(5-fluoro-2-methylphenyl)sulfonylcyclopropyl]-6-[(3S)-3-methylmorphohn-4-yl]pyrimidin-2-yl]phenyl]urea] |
